# Legend:
# CCI rats = assay: Mechanical conflict device (MCD) test, neuropathic pain from chronic constriction injury (CCI) of the left sciatic nerve; assay type: in vivo, rat; conditions: pregabalin 10 and 30 mg/kg, i.p.
# Excerpt: (§1) The mechanical conflict device can be used in various methods. With reference now to FIGS. 3-7, the MCD 10 of the present technology can be used to measure the response of a laboratory animal 17, such as a rat, to noxious mechanical stimuli. In this test, exit or escape from an aversive environment to a preferred environment is deterred by a noxious mechanical stimulus represented by the pins 60 on a raised pin platform 80, as shown in FIG. 6. In an initial MCD 10 training period, the pins 60 are lowered below the alley floor 50 and the laboratory animal 17 is placed into the holding compartment 20. […] The holding compartment 20 and the alley compartment 30 can be illuminated with normal room lighting. In some embodiments, the holding compartment 20 and/or the alley compartment 30 are supplemented by a light source 220, for example, a high-intensity, white-light LED array positioned above the alley compartment 30, as shown in FIGS. 3-6. At that time, panel walls 110 and 120 can be raised to allow the laboratory animal 17 to learn that it can exit from the mildly aversive stimuli (the light 220) in the holding compartment 20 and alley compartment 30 and move across the floor 50, passing into the more comfortable compensatory compartment 40 where it is generally dim and provides the laboratory animal 17 with a generally more rewarding area. […]
# human neuropathic pain = conditions: in the clinic; cited from earlier work
# [1] = tested on: persistent and neuropathic pain; conditions: animal studies; cited from earlier work
# [2] = tested on: rats with formalin injection into one hindpaw; assay: Mechanical conflict device (MCD) test, inflammatory pain from formalin injection into one hindpaw; assay type: in vivo, rat; conditions: formalin 0.2%, s.c. into one hindpaw, morphine 2.5 mg/kg i.p.
# Excerpt: as §1
smiles,measurement,setting,value
CC(C)C[C@H](CN)CC(=O)O [pregabalin],Latency to exit (light chamber),CCI rats; FIG. 12,modulated
same,Time spent on the stimulus array,CCI rats; FIG. 13,not modulated
COc1ccccc1CN(C[C@@H](Cc1c[nH]c2ccccc12)NC(=O)CN1CCC(N2CCCCC2)CC1)C(C)=O [LY 303870],Analgesia against human neuropathic pain,human neuropathic pain,failed
same,Relief of persistent and neuropathic pain,[1],did relieve persistent and neuropathic pain
CN1CC[C@]23c4c5ccc(O)c4O[C@H]2[C@@H](O)C=C[C@H]3[C@H]1C5 [morphine],Increased latency to exit produced by formalin injection,[2]; FIG. 14,not reduced
same,Increased time spent on the stimulus array produced by formalin injection,[2]; FIG. 15,attenuated
